Converted amounts (≈) assume the structure as drawn.
What was measured:
Type in all cases: functional
Klebsiella pneumoniae [1] = assay: Antibacterial activity against Klebsiella pneumoniae at 25 ug/ml after 24 hrs by agar well diffusion method; settings: read-out: DIZ
Klebsiella pneumoniae [2] = assay: Antibacterial activity against Klebsiella pneumoniae at 75 ug/ml after 24 hrs by agar well diffusion method; settings: read-out: DIZ
Fusarium oxysporum [3] = assay: Antifungal activity against Fusarium oxysporum at 75 ug/ml after 48 hrs by agar well diffusion method; settings: read-out: DIZ
Escherichia coli [4] = assay: Antibacterial activity against Escherichia coli at 75 ug/ml after 24 hrs by agar well diffusion method; settings: read-out: DIZ
Staphylococcus aureus [5] = assay: Antibacterial activity against Staphylococcus aureus incubated for overnight by microdilution method
Escherichia coli [6] = assay: Antibacterial activity against Escherichia coli at 25 ug/ml after 24 hrs by agar well diffusion method; settings: read-out: DIZ
Aspergillus niger [7] = assay: Antifungal activity against Aspergillus niger after 48 to 72 hrs by microdilution method
Fusarium oxysporum [8] = assay: Antifungal activity against Fusarium oxysporum at 50 ug/ml after 48 hrs by agar well diffusion method; settings: read-out: DIZ
Staphylococcus aureus [9] = assay: Antibacterial activity against Staphylococcus aureus at 25 ug/ml after 24 hrs by agar well diffusion method; settings: read-out: DIZ
Staphylococcus aureus [10] = assay: Antibacterial activity against Staphylococcus aureus at 100 ug/ml after 24 hrs by agar well diffusion method; settings: read-out: DIZ
Klebsiella pneumoniae [11] = assay: Antibacterial activity against Klebsiella pneumoniae at 50 ug/ml after 24 hrs by agar well diffusion method; settings: read-out: DIZ
Staphylococcus aureus [12] = assay: Antibacterial activity against Staphylococcus aureus at 50 ug/ml after 24 hrs by agar well diffusion method; settings: read-out: DIZ
Fusarium oxysporum [13] = assay: Antifungal activity against Fusarium oxysporum after 48 to 72 hrs by microdilution method
Aspergillus niger [14] = assay: Antifungal activity against Aspergillus niger at 100 ug/ml after 48 hrs by agar well diffusion method; settings: read-out: DIZ
Fusarium verticillioides [15] = assay: Antifungal activity against Fusarium moniliforme at 25 ug/ml after 48 hrs by agar well diffusion method; settings: read-out: DIZ
Fusarium oxysporum [16] = assay: Antifungal activity against Fusarium oxysporum at 100 ug/ml after 48 hrs by agar well diffusion method; settings: read-out: DIZ
Staphylococcus aureus [17] = assay: Antibacterial activity against methicillin resistant Staphylococcus aureus MRSA090 at 75 ug/ml after 24 hrs by agar well diffusion method; settings: MRSA090, 24 h, read-out: DIZ
Bacillus subtilis [18] = assay: Antibacterial activity against Bacillus subtilis at 75 ug/ml after 24 hrs by agar well diffusion method; settings: read-out: DIZ
Escherichia coli [19] = assay: Antibacterial activity against Escherichia coli at 100 ug/ml after 24 hrs by agar well diffusion method; settings: read-out: DIZ
Fusarium oxysporum [20] = assay: Antifungal activity against Fusarium oxysporum at 25 ug/ml after 48 hrs by agar well diffusion method; settings: read-out: DIZ
Staphylococcus aureus [21] = assay: Antibacterial activity against methicillin resistant Staphylococcus aureus MRSA090 at 25 ug/ml after 24 hrs by agar well diffusion method; settings: MRSA090, 24 h, read-out: DIZ
Klebsiella pneumoniae [22] = assay: Antibacterial activity against Klebsiella pneumoniae at 100 ug/ml after 24 hrs by agar well diffusion method; settings: read-out: DIZ
Staphylococcus aureus [23] = assay: Antibacterial activity against methicillin resistant Staphylococcus aureus MRSA090 at 50 ug/ml after 24 hrs by agar well diffusion method; settings: MRSA090, 24 h, read-out: DIZ
Escherichia coli [24] = assay: Antibacterial activity against Escherichia coli incubated for overnight by microdilution method
Staphylococcus aureus [25] = assay: Antibacterial activity against methicillin resistant Staphylococcus aureus MRSA090 at 100 ug/ml after 24 hrs by agar well diffusion method; settings: MRSA090, 24 h, read-out: DIZ
Bacillus subtilis [26] = assay: Antibacterial activity against Bacillus subtilis incubated for overnight by microdilution method
Klebsiella pneumoniae [27] = assay: Antibacterial activity against Klebsiella pneumoniae incubated for overnight by microdilution method
Fusarium verticillioides [28] = assay: Antifungal activity against Fusarium moniliforme at 75 ug/ml after 48 hrs by agar well diffusion method; settings: read-out: DIZ
Aspergillus niger [29] = assay: Antifungal activity against Aspergillus niger at 25 ug/ml after 48 hrs by agar well diffusion method; settings: read-out: DIZ
Aspergillus niger [30] = assay: Antifungal activity against Aspergillus niger at 75 ug/ml after 48 hrs by agar well diffusion method; settings: read-out: DIZ
Fusarium verticillioides [31] = assay: Antifungal activity against Fusarium moniliforme at 100 ug/ml after 48 hrs by agar well diffusion method; settings: read-out: DIZ
Fusarium verticillioides [32] = assay: Antifungal activity against Fusarium moniliforme at 50 ug/ml after 48 hrs by agar well diffusion method; settings: read-out: DIZ
Aspergillus niger [33] = assay: Antifungal activity against Aspergillus niger at 50 ug/ml after 48 hrs by agar well diffusion method; settings: read-out: DIZ
Staphylococcus aureus [34] = assay: Antibacterial activity against Staphylococcus aureus at 75 ug/ml after 24 hrs by agar well diffusion method; settings: read-out: DIZ
Bacillus subtilis [35] = assay: Antibacterial activity against Bacillus subtilis at 25 ug/ml after 24 hrs by agar well diffusion method; settings: read-out: DIZ
Fusarium verticillioides [36] = assay: Antifungal activity against Fusarium moniliforme after 48 to 72 hrs by microdilution method
Bacillus subtilis [37] = assay: Antibacterial activity against Bacillus subtilis at 50 ug/ml after 24 hrs by agar well diffusion method; settings: read-out: DIZ
Escherichia coli [38] = assay: Antibacterial activity against Escherichia coli at 50 ug/ml after 24 hrs by agar well diffusion method; settings: read-out: DIZ
Bacillus subtilis [39] = assay: Antibacterial activity against Bacillus subtilis at 100 ug/ml after 24 hrs by agar well diffusion method; settings: read-out: DIZ
Staphylococcus aureus [40] = assay: Antibacterial activity against methicillin resistant Staphylococcus aureus MRSA090 incubated for overnight by microdilution method

Compound: Cc1cccc2nc(N/N=C/c3cc(O)c(O)c(O)c3)sc12
- zone of inhibition at 25 µg/mL (Klebsiella pneumoniae [1]): 17 mm
- zone of inhibition at 75 µg/mL (Klebsiella pneumoniae [2]): 28 mm
- zone of inhibition at 75 µg/mL (Fusarium oxysporum [3]): 27 mm
- zone of inhibition at 75 µg/mL (Escherichia coli [4]): 26 mm
- MIC (Staphylococcus aureus [5]): 17 µg/mL (≈ 53.9 µM)
- zone of inhibition at 25 µg/mL (Escherichia coli [6]): 14 mm
- MIC (Aspergillus niger [7]): 28 µg/mL (≈ 88.8 µM)
- zone of inhibition at 50 µg/mL (Fusarium oxysporum [8]): 22 mm
- zone of inhibition at 25 µg/mL (Staphylococcus aureus [9]): 17 mm
- zone of inhibition at 100 µg/mL (Staphylococcus aureus [10]): 31 mm
- zone of inhibition at 50 µg/mL (Klebsiella pneumoniae [11]): 23 mm
- zone of inhibition at 50 µg/mL (Staphylococcus aureus [12]): 24 mm
- MIC (Fusarium oxysporum [13]): 22 µg/mL (≈ 69.8 µM)
- zone of inhibition at 100 µg/mL (Aspergillus niger [14]): 23 mm
- zone of inhibition at 25 µg/mL (Fusarium verticillioides [15]): 10 mm
- zone of inhibition at 100 µg/mL (Fusarium oxysporum [16]): 33 mm
- zone of inhibition at 75 µg/mL (Staphylococcus aureus [17]): 33 mm
- zone of inhibition at 75 µg/mL (Bacillus subtilis [18]): 27 mm
- zone of inhibition at 100 µg/mL (Escherichia coli [19]): 37 mm
- zone of inhibition at 25 µg/mL (Fusarium oxysporum [20]): 15 mm
- zone of inhibition at 25 µg/mL (Staphylococcus aureus [21]): 20 mm
- zone of inhibition at 100 µg/mL (Klebsiella pneumoniae [22]): 37 mm
- zone of inhibition at 50 µg/mL (Staphylococcus aureus [23]): 26 mm
- MIC (Escherichia coli [24]): 19 µg/mL (≈ 60.2 µM)
- zone of inhibition at 100 µg/mL (Staphylococcus aureus [25]): 37 mm
- MIC (Bacillus subtilis [26]): 15 µg/mL (≈ 47.6 µM)
- MIC (Klebsiella pneumoniae [27]): 24 µg/mL (≈ 76.1 µM)
- zone of inhibition at 75 µg/mL (Fusarium verticillioides [28]): 26 mm
- zone of inhibition at 25 µg/mL (Aspergillus niger [29]): 10 mm
- zone of inhibition at 75 µg/mL (Aspergillus niger [30]): 20 mm
- zone of inhibition at 100 µg/mL (Fusarium verticillioides [31]): 34 mm
- zone of inhibition at 50 µg/mL (Fusarium verticillioides [32]): 17 mm
- zone of inhibition at 50 µg/mL (Aspergillus niger [33]): 14 mm
- zone of inhibition at 75 µg/mL (Staphylococcus aureus [34]): 28 mm
- zone of inhibition at 25 µg/mL (Bacillus subtilis [35]): 14 mm
- MIC (Fusarium verticillioides [36]): 25 µg/mL (≈ 79.3 µM)
- zone of inhibition at 50 µg/mL (Bacillus subtilis [37]): 22 mm
- zone of inhibition at 50 µg/mL (Escherichia coli [38]): 20 mm
- zone of inhibition at 100 µg/mL (Bacillus subtilis [39]): 35 mm
- MIC (Staphylococcus aureus [40]): 18 µg/mL (≈ 57.1 µM)

Compound: COc1cc(/C=N/Nc2nc3cccc(C)c3s2)cc(OC)c1OC
- zone of inhibition at 25 µg/mL (Klebsiella pneumoniae [1]): 21 mm
- zone of inhibition at 75 µg/mL (Klebsiella pneumoniae [2]): 33 mm
- zone of inhibition at 75 µg/mL (Fusarium oxysporum [3]): 17 mm
- zone of inhibition at 75 µg/mL (Escherichia coli [4]): 31 mm
- MIC (Staphylococcus aureus [5]): 19 µg/mL (≈ 53.2 µM)
- zone of inhibition at 25 µg/mL (Escherichia coli [6]): 20 mm
- MIC (Aspergillus niger [7]): 30 µg/mL (≈ 83.9 µM)
- zone of inhibition at 50 µg/mL (Fusarium oxysporum [8]): 11 mm
- zone of inhibition at 25 µg/mL (Staphylococcus aureus [9]): 22 mm
- zone of inhibition at 100 µg/mL (Staphylococcus aureus [10]): 38 mm
- zone of inhibition at 50 µg/mL (Klebsiella pneumoniae [11]): 27 mm
- zone of inhibition at 50 µg/mL (Staphylococcus aureus [12]): 28 mm
- MIC (Fusarium oxysporum [13]): 23 µg/mL (≈ 64.3 µM)
- zone of inhibition at 100 µg/mL (Aspergillus niger [14]): 21 mm
- zone of inhibition at 25 µg/mL (Fusarium verticillioides [15]): 23 mm
- zone of inhibition at 100 µg/mL (Fusarium oxysporum [16]): 20 mm
- zone of inhibition at 75 µg/mL (Staphylococcus aureus [17]): 31 mm
- zone of inhibition at 75 µg/mL (Bacillus subtilis [18]): 28 mm
- zone of inhibition at 100 µg/mL (Escherichia coli [19]): 36 mm
- zone of inhibition at 25 µg/mL (Fusarium oxysporum [20]): 7 mm
- zone of inhibition at 25 µg/mL (Staphylococcus aureus [21]): 19 mm
- zone of inhibition at 100 µg/mL (Klebsiella pneumoniae [22]): 38 mm
- zone of inhibition at 50 µg/mL (Staphylococcus aureus [23]): 25 mm
- MIC (Escherichia coli [24]): 20 µg/mL (≈ 56 µM)
- zone of inhibition at 100 µg/mL (Staphylococcus aureus [25]): 34 mm
- MIC (Bacillus subtilis [26]): 18 µg/mL (≈ 50.4 µM)
- MIC (Klebsiella pneumoniae [27]): 22 µg/mL (≈ 61.5 µM)
- zone of inhibition at 75 µg/mL (Fusarium verticillioides [28]): 33 mm
- zone of inhibition at 25 µg/mL (Aspergillus niger [29]): 9 mm
- zone of inhibition at 75 µg/mL (Aspergillus niger [30]): 20 mm
- zone of inhibition at 100 µg/mL (Fusarium verticillioides [31]): 37 mm
- zone of inhibition at 50 µg/mL (Fusarium verticillioides [32]): 28 mm
- zone of inhibition at 50 µg/mL (Aspergillus niger [33]): 14 mm
- zone of inhibition at 75 µg/mL (Staphylococcus aureus [34]): 33 mm
- zone of inhibition at 25 µg/mL (Bacillus subtilis [35]): 19 mm
- MIC (Fusarium verticillioides [36]): 26 µg/mL (≈ 72.7 µM)
- zone of inhibition at 50 µg/mL (Bacillus subtilis [37]): 24 mm
- zone of inhibition at 50 µg/mL (Escherichia coli [38]): 25 mm
- zone of inhibition at 100 µg/mL (Bacillus subtilis [39]): 33 mm
- MIC (Staphylococcus aureus [40]): 19 µg/mL (≈ 53.2 µM)

Source: ChEMBL document CHEMBL4020788, “Synthesis, SAR and molecular docking studies of benzo[d]thiazole-hydrazones as potential antibacterial and antifungal agents” (2017)
